From article PMC12655172, “Borylated 5-Membered Ring Iminosugars: Synthesis and Biological Evaluation for Glycosidase Inhibition and Anticancer Properties for Application in Boron Neutron Capture Therapy (BNCT)—Part 2” (Pharmaceuticals, 2025)

Assays:
[1] = Sample appearance on sample preparation in water; type: physicochemical; conditions: 1 mL of water was added to 1 mg solid
[2] = system: MCF10A (non-tumour derived normal breast cell line); test: Cancer screening, MTT growth inhibition; type: cell-based; conditions: Homo sapiens, MCF-10A, 72 h; for inhibition at 25 µM: 25 µM of drug, read-out: DOSE SCREEN percentage (%) cell growth inhibition MCF10A Breast (normal); for GI50: read-out: DOSE RESPONSE GI50 MCF10A Breast (normal)
[3] = biological target: T1, α-D-glucosidase (yeast) (Saccharomyces cerevisiae, UniProt P53341); test: Glycosidase inhibition (Table 3 panel); type: biochemical; conditions: 1 mg/mL aqueous solution, run in water; for inhibition at 1000 µg/mL (stock): read-out: Percentage inhibition α-D-Glucosidase Yeast
T1 construct: purchased Sigma-Aldrich
Method: All enzymes and para-nitrophenyl substrates were purchased from Sigma. Enzymes were assayed at 27 °C in citric acid (0.1 M)/disodium hydrogen phosphate (0.2 M) buffers at the optimum pH for the enzyme. The incubation mixture consisted of […] of 1 mg/mL aqueous solution of extract and […] of the appropriate 5 μM para-nitrophenyl substrate made up in buffer at the optimum pH for the enzyme. […] Assays were carried out in triplicate, and the values given are means of the three replicates per assay. All reactions were run in water.

[4] = system: T2, amyloglucosidase (A. niger); test: Glycosidase inhibition (Table 2 panel); type: biochemical
T2 construct: purchased Sigma-Aldrich
Description: (§1) The enzymes α-D-glucosidase (yeast), β-D-glucosidases (almond, bovine liver), α-D-galactosidase (coffee beans), β-D-galactosidase (bovine liver), α-D-mannosidase (Jack bean), β-D-mannosidase (snail), α-L-rhamnosidase (P. decumbens), α-L-fucosidase (bovine kidney), trehalase (porcine kidney), β-D-glucuronidases (E. coli, bovine liver), amyloglucosidase (A. niger), para-nitrophenyl glycosides, and various disaccharides were purchased from Sigma-Aldrich Co (St. Louis, MO, USA).
(§2) Brush border membranes were prepared from the rat small intestine according to the method of Kessler et al., and were assayed at pH 6.8 for rat intestinal maltase using maltose. […] The reaction was stopped by heating at 100 °C for 3 min. After centrifugation (600 g; 10 min), the resulting reaction mixture was added to the Glucose CII-test Wako (Wako Pure Chemical Ind., Osaka, Japan). […] Other glycosidase activities were determined using an appropriate para-nitrophenyl glycoside as substrate at the optimum pH of each enzyme. The reaction mixture contained the substrate ([…]) and the appropriate amount of enzyme. The reaction was stopped by the addition of Na2CO3 (400 μM). The released para-nitrophenol was measured spectrometrically at 400 nm. All reactions were run in methanol.

[5] = biological target: T1, α-D-glucosidase (yeast); test: Glycosidase inhibition (Table 2 panel); type: biochemical; conditions: read-out: inhibition % α-D-Glucosidase Yeast
Description: as §1, §2

[6] = system: T3, β-D-glucuronidase (E. coli); test: Glycosidase inhibition (Table 2 panel); type: biochemical
T3 construct: purchased Sigma-Aldrich
Description: as §1, §2

[7] = biological target: T4, β-D-glucosidase (bovine liver) (Bos taurus, UniProt F1MNT6); test: Glycosidase inhibition (Table 2 panel); type: biochemical
T4 sequence (F1MNT6 1-469): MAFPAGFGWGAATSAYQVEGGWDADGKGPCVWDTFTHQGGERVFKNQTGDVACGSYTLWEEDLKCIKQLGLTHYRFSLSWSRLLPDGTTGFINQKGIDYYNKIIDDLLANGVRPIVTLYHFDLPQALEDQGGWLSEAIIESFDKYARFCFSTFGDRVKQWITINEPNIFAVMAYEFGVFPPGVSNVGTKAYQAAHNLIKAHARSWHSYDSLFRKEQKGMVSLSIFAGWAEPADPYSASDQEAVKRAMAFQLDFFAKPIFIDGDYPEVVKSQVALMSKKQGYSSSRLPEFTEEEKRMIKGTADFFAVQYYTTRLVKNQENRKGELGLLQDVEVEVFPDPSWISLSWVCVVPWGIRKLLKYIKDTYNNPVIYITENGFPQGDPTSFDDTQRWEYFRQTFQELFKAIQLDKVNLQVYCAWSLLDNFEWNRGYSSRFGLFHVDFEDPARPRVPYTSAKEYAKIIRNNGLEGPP
Description: as §1
(§3) Brush border membranes were prepared from the rat small intestine according to the method of Kessler et al., and were assayed at pH 6.8 for rat intestinal maltase using maltose. For rat intestinal maltase, porcine kidney trehalase, and A. niger amyloglucosidase activities, the reaction mixture contained maltose ([…]) and the appropriate amount of enzyme, and the incubations were performed for 10–30 min at 37 °C. The reaction was stopped by heating at 100 °C for 3 min. After centrifugation (600 g; 10 min), the resulting reaction mixture was added to the Glucose CII-test Wako (Wako Pure Chemical Ind., Osaka, Japan). The absorbance at 505 nm was measured to determine the amount of the released D-glucose. Other glycosidase activities were determined using an appropriate para-nitrophenyl glycoside as substrate at the optimum pH of each enzyme. The reaction mixture contained the substrate ([…]) and the appropriate amount of enzyme. The reaction was stopped by the addition of Na2CO3 ([…]). The released para-nitrophenol was measured spectrometrically at 400 nm. All reactions were run in […].

[8] = system: T5, α-D-mannosidase (Jack bean); test: Glycosidase inhibition (Table 2 panel); type: biochemical
T5 construct: purchased Sigma-Aldrich; host or cells: Jack bean
Description: as §1, §3

[9] = system: β-D-mannosidase (snail); test: Glycosidase inhibition (Table 2 panel); type: biochemical
Description: as §1, §3

[10] = system: β-D-glucosidase (almond); test: Glycosidase inhibition (Table 2 panel); type: biochemical
Description: as §1, §3

[11] = system: α-D-glucosidase (rat intestinal maltase); test: Glycosidase inhibition (Table 2 panel); type: biochemical
Description: as §1, §3

[12] = biological target: α-D-glucosidase (rice) (Oryza sativa subsp. japonica, UniProt Q653V7); test: Glycosidase inhibition (Table 2 panel); type: biochemical
Description: as §1, §3

[13] = system: β-D-glucuronidase (bovine liver); test: Glycosidase inhibition (Table 2 panel); type: biochemical
Description: as §1, §3

[14] = system: α-L-rhamnosidase (P. decumbens); test: Glycosidase inhibition (Table 2 panel); type: biochemical
Description: as §1, §3

[15] = system: T6, trehalase (porcine kidney); test: Glycosidase inhibition (Table 2 panel); type: biochemical
T6 construct: purchased Sigma-Aldrich; host or cells: porcine kidney
Description: as §1, §3

[16] = system: T7, α-D-galactosidase (coffee beans); test: Glycosidase inhibition (Table 2 panel); type: biochemical
T7 construct: purchased Sigma-Aldrich; host or cells: coffee beans
Description: as §1, §3

[17] = listed as of the 1000 μM series

Sequence of α-D-glucosidase (rice) (Q653V7 34-885): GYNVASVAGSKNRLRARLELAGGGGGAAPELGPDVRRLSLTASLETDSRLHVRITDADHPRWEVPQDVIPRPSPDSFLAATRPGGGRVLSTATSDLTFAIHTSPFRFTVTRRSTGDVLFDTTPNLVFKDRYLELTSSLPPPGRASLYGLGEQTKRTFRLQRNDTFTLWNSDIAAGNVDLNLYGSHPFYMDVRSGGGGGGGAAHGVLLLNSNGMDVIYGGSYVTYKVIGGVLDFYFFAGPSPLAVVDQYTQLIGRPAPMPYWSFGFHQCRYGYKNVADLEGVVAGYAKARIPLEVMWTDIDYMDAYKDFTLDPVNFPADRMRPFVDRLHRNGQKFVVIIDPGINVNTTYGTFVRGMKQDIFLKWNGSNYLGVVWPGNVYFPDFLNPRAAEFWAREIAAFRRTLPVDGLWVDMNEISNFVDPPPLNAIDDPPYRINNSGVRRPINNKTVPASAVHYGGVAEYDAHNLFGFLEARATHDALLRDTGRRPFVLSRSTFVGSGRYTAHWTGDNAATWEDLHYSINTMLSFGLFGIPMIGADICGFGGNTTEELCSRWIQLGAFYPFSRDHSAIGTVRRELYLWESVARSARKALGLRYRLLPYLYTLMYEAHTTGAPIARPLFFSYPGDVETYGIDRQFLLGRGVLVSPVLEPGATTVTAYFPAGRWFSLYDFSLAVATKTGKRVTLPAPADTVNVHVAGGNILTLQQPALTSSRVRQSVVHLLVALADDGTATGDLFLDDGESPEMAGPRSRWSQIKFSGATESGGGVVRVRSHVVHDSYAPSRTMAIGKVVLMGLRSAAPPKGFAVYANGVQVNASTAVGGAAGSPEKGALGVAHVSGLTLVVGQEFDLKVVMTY
T1 sequence (P53341 whole entry): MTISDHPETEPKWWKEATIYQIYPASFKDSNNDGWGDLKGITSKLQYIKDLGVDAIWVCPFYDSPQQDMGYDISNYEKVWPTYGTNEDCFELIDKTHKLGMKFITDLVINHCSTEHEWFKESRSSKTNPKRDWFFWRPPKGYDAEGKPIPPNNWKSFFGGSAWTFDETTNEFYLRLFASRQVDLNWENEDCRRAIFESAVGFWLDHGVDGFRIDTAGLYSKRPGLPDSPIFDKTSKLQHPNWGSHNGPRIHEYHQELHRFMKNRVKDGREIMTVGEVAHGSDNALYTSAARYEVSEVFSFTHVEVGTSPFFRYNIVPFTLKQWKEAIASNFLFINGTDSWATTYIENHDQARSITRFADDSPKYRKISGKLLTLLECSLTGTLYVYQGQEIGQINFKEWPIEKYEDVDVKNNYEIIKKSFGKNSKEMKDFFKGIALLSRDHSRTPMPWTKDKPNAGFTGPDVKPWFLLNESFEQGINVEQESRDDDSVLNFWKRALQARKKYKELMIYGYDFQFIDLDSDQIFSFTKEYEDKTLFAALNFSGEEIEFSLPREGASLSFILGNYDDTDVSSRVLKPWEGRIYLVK

Compound | Sample Appearance [1] | inhibition at 25 µM [2] | GI50 [2] | inhibition at 1000 µg/mL (stock) [3] | inhibition % Amyloglucosidase A. niger ([4]; at 100 μM) | inhibition % Amyloglucosidase A. niger ([4]; at 1000 μM) | inhibition at 100 µM [5] | inhibition at 1000 µM [5] | inhibition % β-D-Glucuronidase E. coli ([6]; at 100 μM) | inhibition % β-D-Glucuronidase E. coli ([6]; at 1000 μM) | inhibition at 100 µM [7] | inhibition % α-D-Mannosidase Jack Bean ([8]; at 100 μM) | inhibition % β-D-Mannosidase Snail ([9]; at 100 μM) | inhibition % β-D-Glucosidase Almond ([10]; at 100 μM) | inhibition % α-D-Glucosidase Rat Intestinal Maltase ([11]; at 100 μM) | inhibition at 100 µM [12] | inhibition % β-D-Glucuronidase Bovine Liver ([13]; at 100 μM) | inhibition % α-L-Rhamnosidase P. decumbens ([14]; at 100 μM) | inhibition % Trehalase Porcine Kidney ([15]; at 100 μM) | inhibition % α-D-Galactosidase Coffee Beans ([16]; at 100 μM) | other results
OC[C@H](O)[C@@H]1[C@H](O)[C@H](O)CN1Cc1cccc(B(O)O)c1 [meta 4, N-(3-Methylphenylboronic acid)-1,4-dideoxy-1,4-imino-L-gulitol] | In solution | 14 ± 13% | > 50 µM | 23.5% | ^cNI ^d(6.6%) | ^aNI ^b(3.6%) | 8.1% | 4.9% | ^cNI ^d(3.5%) | ^aNI ^b(20.6%) | 0% | ^cNI ^d(0%) | ^cNI ^d(0%) | ^cNI ^d(0.6%) | ^cNI ^d(22.8%) | 8% | ^cNI ^d(0%) | ^cNI ^d(8.3%) | ^cNI ^d(0.8%) | ^cNI ^d(1.1%) | inhibition at 1000 µM [7]: 37.9%; inhibition % α-D-Mannosidase Jack Bean ([8]; at 1000 μM): ^aNI ^b(0%); inhibition % β-D-Mannosidase Snail ([9]; at 1000 μM): ^aNI ^b(0%); inhibition % β-D-Glucosidase Almond ([10]; at 1000 μM): ^aNI ^b(43%); IC50 [11, 17]: 588 µM; IC50 [12, 17]: 106 µM; inhibition % β-D-Glucuronidase Bovine Liver ([13]; at 1000 μM): ^aNI ^b(14.7%); inhibition % Trehalase Porcine Kidney ([15]; at 1000 μM): ^aNI ^b(3.4%); inhibition % α-D-Galactosidase Coffee Beans ([16]; at 1000 μM): ^aNI ^b(3.7%)
CC1(C)O[C@H]2O[C@H]3[C@@H]([C@H]2O1)N(Cc1cccc(B(O)O)c1)C[C@H]3O [meta 5, N-(3-Methylphenylboronic acid)-3,6-dideoxy-3,6-imino-1,2-O-isopropylidene-α-D-glucofuranose] | In solution | 7 ± 4% | > 50 µM | 14.8% | ^cNI ^d(0%) |  | 7.8% |  | ^cNI ^d(4.1%) |  | 23% | ^cNI ^d(6.3%) | ^cNI ^d(2.3%) | ^cNI ^d(0%) | ^cNI ^d(0%) | 0% | ^cNI ^d(2.9%) | ^cNI ^d(0.6%) | ^cNI ^d(0%) | ^cNI ^d(1.5%) | Percentage inhibition α-D-Glucosidase Yeast [3]: 13.7%
CC1(C)O[C@H]2O[C@H]3[C@@H]([C@H]2O1)N(Cc1cccc(O)c1)C[C@H]3O [meta 6] | In solution | 4 ± 2% | > 50 µM | 6.6% | ^cNI ^d(4.8%) |  | 0% |  | ^cNI ^d(0%) |  | 15.8% | ^cNI ^d(9.5%) | ^cNI ^d(0.6%) | ^cNI ^d(6.3%) | ^cNI ^d(4.7%) | 0% | ^cNI ^d(1.6%) | ^cNI ^d(6.5%) | ^cNI ^d(0%) | ^cNI ^d(0%) | 
CC1(C)O[C@H]2O[C@H]3[C@@H]([C@H]2O1)N(Cc1ccccc1B1OC(C)(C)C(C)(C)O1)C[C@H]3O [ortho 2, N-(2-Methylphenylboronic acid pinacol ester)-3,6-dideoxy-3,6-imino-1,2-O-isopropylidene-α-D-gulofuranose] | In solution | 9 ± 4% | > 50 µM | -2% | ^cNI ^d(0%) | ^aNI ^b(3.2%) | 1% | 0% | ^cNI ^d(4.1%) | ^aNI ^b(5.2%) | 4.9% | ^cNI ^d(9.4%) | ^cNI ^d(0%) | ^cNI ^d(35%) | ^cNI ^d(15.5%) | 0% | ^cNI ^d(2.2%) | ^cNI ^d(1.5%) | ^cNI ^d(5.6%) | ^cNI ^d(0%) | inhibition at 1000 µM [7]: 19.7%; inhibition % α-D-Mannosidase Jack Bean ([8]; at 1000 μM): ^aNI ^b(1.3%); inhibition % β-D-Mannosidase Snail ([9]; at 1000 μM): ^aNI ^b(7.8%); inhibition % β-D-Glucosidase Almond ([10]; at 1000 μM): ^aNI ^b(7.2%); inhibition % α-D-Glucosidase Rat Intestinal Maltase ([11]; at 1000 μM): ^aNI ^b(0%); inhibition at 1000 µM ([12]; at 1000 μM): 0%; inhibition % β-D-Glucuronidase Bovine Liver ([13]; at 1000 μM): ^aNI ^b(8.4%); inhibition % α-L-Rhamnosidase P. decumbens ([14]; at 1000 μM): ^aNI ^b(2.0%); inhibition % Trehalase Porcine Kidney ([15]; at 1000 μM): ^aNI ^b(1.8%); inhibition % α-D-Galactosidase Coffee Beans ([16]; at 1000 μM): ^aNI ^b(2.9%)
